Test results as given in patent publication US8822503B2, “2-pyridone compounds” (Taisho Pharmaceutical Co., Ltd, priority 2009, dated 2014).

Biological target: T1, human liver GK (Homo sapiens, UniProt P35557)
T1 construct: GST (glutathione S-transferase) (N); made in house; host or cells: E. coli
T1 sequence (P35557 1-466 isoform P35557-2): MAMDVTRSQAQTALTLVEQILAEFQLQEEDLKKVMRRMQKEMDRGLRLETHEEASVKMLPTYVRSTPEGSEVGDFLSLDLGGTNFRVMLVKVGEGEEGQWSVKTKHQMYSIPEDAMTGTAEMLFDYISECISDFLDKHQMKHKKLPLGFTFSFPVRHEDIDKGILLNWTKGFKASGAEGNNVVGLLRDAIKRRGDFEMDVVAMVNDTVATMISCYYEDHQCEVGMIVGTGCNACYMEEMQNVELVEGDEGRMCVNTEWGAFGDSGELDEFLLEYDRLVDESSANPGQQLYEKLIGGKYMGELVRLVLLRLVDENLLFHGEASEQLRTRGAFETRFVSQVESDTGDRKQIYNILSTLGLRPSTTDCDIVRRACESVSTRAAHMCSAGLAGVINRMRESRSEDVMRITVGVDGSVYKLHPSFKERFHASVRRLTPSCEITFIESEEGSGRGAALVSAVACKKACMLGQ
Experiment: GK activation test
Format: biochemical
Conditions: test compound concentration needed to activate 50% of maximum activation ability; 4 mM 14C-labeled glucose, 2 mM ATP, room temperature, 20 minutes
Method in brief: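 GST-tagged human liver GK from E. coli (0.24 μg/well) with 4 mM 14C-glucose, 2 mM ATP in Hepes-KOH pH 7.1, KCl, MgCl2, DTT, 1% DMSO, 20 min room temperature. Labeled glucose 6-phosphate captured on anion resin, eluted and counted. EC50 = concentration giving half of maximal activation.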

EC50 [µM] | Compound
0.01 to 0.5 | CS(=O)(=O)c1ccc(/C(=C\[C@H]2CCC(=O)C2)c2ccc(C3CC3)c(=O)[nH]2)cc1 [Example 1-108, 3-Cyclopropyl-6-{(E)-1-[4-(methylsulfonyl)phenyl]-2-[(1S)-3-oxocyclopentyl]ethenyl}pyridin-2(1H)-one]
0.5 to 3 | CC(C)c1ccc(/C(=C\C2CCOCC2)c2ccc(Cl)c(=O)[nH]2)cc1 [Example 1-109, 3-Chloro-6-[(E)-1-[4-(propan-2-yl)phenyl]-2-(tetrahydro-2H-pyran-4-yl)ethenyl]pyridin-2(1H)-one]
0.5 to 3 | O=c1[nH]c(/C(=C/C2CCOCC2)c2ccc(S(=O)(=O)C3CC3)cc2)ccc1Cl [Example 1-110, 3-Chloro-6-[(E)-1-[4-(cyclopropylsulfonyl)phenyl]-2-(tetrahydro-2H-pyran-4-yl)ethenyl]pyridin-2(1H)-one]
3 to 10 | O=c1[nH]c(/C(=C/C2CCOCC2)c2ccc(N3CCOCC3)cc2)ccc1Cl [Example 1-111, 3-Chloro-6-[(E)-1-[4-(morpholin-4-yl)phenyl]-2-(tetrahydro-2H-pyran-4-yl)ethenyl]pyridin-2(1H)-one]
3 to 10 | CC(=O)c1ccc(/C(=C\C2CCOCC2)c2ccc(Cl)c(=O)[nH]2)cc1 [Example 1-112, 6-[(E)-1-(4-Acetylphenyl)-2-(tetrahydro-2H-pyran-4-yl)ethenyl]-3-chloropyridin-2(1H)-one]
3 to 10 | CS(=O)(=O)c1ccc(C/C(=C\C2CCOCC2)c2ccc(Cl)c(=O)[nH]2)cc1 [Example 1-113, 3-Chloro-6-[(1E)-3-[4-(methylsulfonyl)phenyl]-1-(tetrahydro-2H-pyran-4-yl)prop-1-en-2-yl]pyridin-2(1H)-one]
0.5 to 3 | CSc1ccc(C(CC2CCCC2)c2ccc(C)c(=O)[nH]2)cc1 (centres unmarked) [Example 2-1, 6-{2-Cyclopentyl-1-[4-(methylsulfanyl)phenyl]ethyl}-3-methylpyridin-2(1H)-one]
0.5 to 3 | Cc1ccc(C(CC2CCCC2)c2ccc(S(C)(=O)=O)cc2)[nH]c1=O (centres unmarked) [Example 2-2, 6-{2-Cyclopentyl-1-[4-(methylsulfonyl)phenyl]ethyl}-3-methylpyridin-2(1H)-one]
0.01 to 0.5 | Cc1ccc(C(CC2CCCC2)c2ccc(S(=O)(=O)C3CC3)cc2)[nH]c1=O (centres unmarked) [Example 2-3, 6-{2-Cyclopentyl-1-[4-(cyclopropylsulfonyl)phenyl]ethyl}-3-methylpyridin-2(1H)-one]
0.5 to 3 | CSc1ccc(C(CC2CCCC2)c2ccc(C)c(=O)[nH]2)cc1Cl (centres unmarked) [Example 2-4, 6-{1-[3-Chloro-4-(methylsulfanyl)phenyl]-2-cyclopentylethyl}-3-methylpyridin-2(1H)-one]
0.5 to 3 | Cc1ccc(C(CC2CCCC2)c2ccc(S(C)(=O)=O)c(Cl)c2)[nH]c1=O (centres unmarked) [Example 2-5, 6-{1-[3-Chloro-4-(methylsulfonyl)phenyl]-2-cyclopentylethyl}-3-methylpyridin-2(1H)-one]
0.5 to 3 | CCc1ccc(C(CC2CCCC2)c2ccc(SC)cc2)[nH]c1=O (centres unmarked) [Example 2-6, 6-{2-Cyclopentyl-1-[4-(methylsulfanyl)phenyl]ethyl}-3-ethylpyridin-2(1H)-one]
0.5 to 3 | CCc1ccc(C(CC2CCCC2)c2ccc(S(C)(=O)=O)cc2)[nH]c1=O (centres unmarked) [Example 2-7, 6-{2-Cyclopentyl-1-[4-(methylsulfonyl)phenyl]ethyl}-3-ethylpyridin-2(1H)-one]
0.5 to 3 | CCCc1ccc(C(CC2CCCC2)c2ccc(SC)cc2)[nH]c1=O (centres unmarked) [Example 2-8, 6-{2-Cyclopentyl-1-[4-(methylsulfanyl)phenyl]ethyl}-3-propylpyridin-2(1H)-one]
0.5 to 3 | CCCc1ccc(C(CC2CCCC2)c2ccc(S(C)(=O)=O)cc2)[nH]c1=O (centres unmarked) [Example 2-9, 6-{2-Cyclopentyl-1-[4-(methylsulfonyl)phenyl]ethyl}-3-propylpyridin-2(1H)-one]
0.5 to 3 | CS(=O)(=O)c1ccc(C(CC2CCCC2)c2ccc(C3CC3)c(=O)[nH]2)cc1 (centres unmarked) [Example 2-10, 6-{2-Cyclopentyl-1-[4-(methylsulfonyl)phenyl]ethyl}-3-cyclopropylpyridin-2(1H)-one]
0.5 to 3 | CCc1ccc(C(CC2CCCC2)c2ccc(S(=O)(=O)CCCO)cc2)[nH]c1=O (centres unmarked) [Example 2-11, 6-(2-Cyclopentyl-1-{4-[(3-hydroxypropyl)sulfonyl]phenyl}ethyl)-3-ethylpyridin-2(1H)-one]
0.5 to 3 | CC(C)c1ccc(C(CC2CCCC2)c2ccc(S(C)(=O)=O)cc2)[nH]c1=O (centres unmarked) [Example 2-12, 6-{2-Cyclopentyl-1-[4-(methylsulfonyl)phenyl]ethyl}-3-(propan-2-yl)pyridin-2(1H)-one]

EC50 [µM] | Compound
0.5 to 3 | CCN(CC)CCCS(=O)(=O)c1ccc(C(CC2CCCC2)c2ccc(C)c(=O)[nH]2)cc1Cl (centres unmarked) [Example 2-13, 6-[1-(3-Chloro-4-{[3-(diethylamino)propyl]sulfonyl}phenyl)-2-cyclopentylethyl]-3-methylpyridin-2(1H)-one]
0.5 to 3 | Cc1ccc(C(CC2CCCC2)c2ccc(S(=O)(=O)CCCO)c(Cl)c2)[nH]c1=O (centres unmarked) [Example 2-14, 6-(1-{3-Chloro-4-[(3-hydroxypropyl)sulfonyl]phenyl}-2-cyclopentylethyl)-3-methylpyridin-2(1H)-one]
0.01 to 0.5 | Cc1ccc(C(CCC2CCCC2)c2ccc(S(=O)(=O)C3CC3)cc2)[nH]c1=O (centres unmarked) [Example 2-15, 6-{3-Cyclopentyl-1-[4-(cyclopropylsulfonyl)phenyl]propyl}-3-methylpyridin-2(1H)-one]
0.5 to 3 | CSc1ccc(C(CC2CCCCC2)c2ccc(C)c(=O)[nH]2)cc1 (centres unmarked) [Example 2-16, 6-{2-Cyclohexyl-1-[4-(methylsulfanyl)phenyl]ethyl}-3-methylpyridin-2(1H)-one]
0.5 to 3 | Cc1ccc(C(CC2CCCCC2)c2ccc(S(C)(=O)=O)cc2)[nH]c1=O (centres unmarked) [Example 2-17, 6-{2-Cyclohexyl-1-[4-(methylsulfonyl)phenyl]ethyl}-3-methylpyridin-2(1H)-one]
3 to 10 | CSc1ccc(C(CC2CCOCC2)c2ccc(C)c(=O)[nH]2)cc1 (centres unmarked) [Example 2-18, 3-Methyl-6-{1-[4-(methylsulfanyl)phenyl]-2-(tetrahydro-2H-pyran-4-yl)ethyl}pyridin-2(1H)-one]
3 to 10 | Cc1ccc(C(CC2CCOCC2)c2ccc(S(C)(=O)=O)cc2)[nH]c1=O (centres unmarked) [Example 2-19, 3-Methyl-6-{1-[4-(methylsulfonyl)phenyl]-2-(tetrahydro-2H-pyran-4-yl)ethyl}pyridin-2(1H)-one]
0.5 to 3 | CSc1ccc(C(CC2CCC(=O)CC2)c2ccc(C)c(=O)[nH]2)cc1 (centres unmarked) [Example 2-20, 3-Methyl-6-{1-[4-(methylsulfanyl)phenyl]-2-(4-oxocyclohexyl)ethyl}pyridin-2(1H)-one]
3 to 10 | Cc1ccc(C(CC2CCC(=O)CC2)c2ccc(S(C)(=O)=O)cc2)[nH]c1=O (centres unmarked) [Example 2-21, 3-Methyl-6-{1-[4-(methylsulfonyl)phenyl]-2-(4-oxocyclohexyl)ethyl}pyridin-2(1H)-one]
0.5 to 3 | CSc1ccc(C(C[C@H]2CCC(=O)C2)c2ccc(C)c(=O)[nH]2)cc1 (stereo partly drawn) [Example 2-22, 3-Methyl-6-{1-[4-(methylsulfanyl)phenyl]-2-[(1R)-3-oxocyclopentyl]ethyl}pyridin-2(1H)-one]
3 to 10 | Cc1ccc(C(C[C@H]2CCC(=O)C2)c2ccc(S(C)(=O)=O)cc2)[nH]c1=O (stereo partly drawn) [Example 2-23, 3-Methyl-6-{1-[4-(methylsulfonyl)phenyl]-2-[(1R)-3-oxocyclopentyl]ethyl}pyridin-2(1H)-one]
3 to 10 | CN1CCN(S(=O)(=O)c2ccc(C(CC3CCCC3)c3ccc(Cl)c(=O)[nH]3)cc2)CC1 (centres unmarked) [Example 2-24, 3-Chloro-6-(2-cyclopentyl-1-{4-[(4-methylpiperazin-1-yl)sulfonyl]phenyl}ethyl)pyridin-2(1H)-one]
0.5 to 3 | O=c1[nH]c(C(CC2CCCC2)c2ccc(S(=O)(=O)C3CC3)cc2)ccc1Cl (centres unmarked) [Example 2-25, 3-Chloro-6-{2-cyclopentyl-1-[4-(cyclopropylsulfonyl)phenyl]ethyl}pyridin-2(1H)-one]
0.01 to 0.5 | CSc1ccc(/C(=C\[C@H]2CCC(=O)N2)c2ccc(C3CC3)c(=O)[nH]2)cc1 [Example 4-1, 3-Cyclopropyl-6-{(E)-1-[4-(methylsulfanyl)phenyl]-2-[(2R)-5-oxopyrrolidin-2-yl]ethenyl}pyridin-2(1H)-one]
0.5 to 3 | CCOc1ccc(/C(=C\[C@H]2CCC(=O)N2)c2ccc(Cl)c(=O)[nH]2)cc1Cl [Example 4-2, 3-Chloro-6-{(E)-1-(3-chloro-4-ethoxyphenyl)-2-[(2R)-5-oxopyrrolidin-2-yl]ethenyl}pyridin-2(1H)-one]
0.5 to 3 | CCOc1ccc(C(C[C@H]2CCC(=O)N2)c2ccc(Cl)c(=O)[nH]2)cc1Cl (stereo partly drawn) [Example 4-3, 3-Chloro-6-{1-(3-chloro-4-ethoxyphenyl)-2-[(2R)-5-oxopyrrolidin-2-yl]ethyl}pyridin-2(1H)-one]
0.01 to 0.5 | Cc1ccc(/C(=C\[C@H]2CCC(=O)N2)c2ccc(C3CC3)c(=O)[nH]2)cc1 [Example 4-4, 3-Cyclopropyl-6-{(E)-1-(4-methylphenyl)-2-[(2R)-5-oxopyrrolidin-2-yl]ethenyl}pyridin-2(1H)-one]
